Experimental data as given in ChEMBL document CHEMBL3045635, “Synthesis and in vitro antimicrobial evaluation of novel 2-amino-6-(phenylthio)-4-(2-(phenylthio)quinolin-3-yl)pyridine-3,5-dicarbonitriles” (2013).
≈ marks a conversion by molar mass, not a printed value.

How the values were obtained:
Format in all cases: functional
Aspergillus fumigatus = assay: Antifungal activity against Aspergillus fumigatus MTCC 3008 after 48 hr by broth microdilution method
Candida albicans = assay: Antifungal activity against Candida albicans MTCC 227 after 48 hr by broth microdilution method
Salmonella typhi = assay: Antibacterial activity against Salmonella enterica subsp. enterica serovar Typhi MTCC 98 after 24 hr by broth microdilution method; conditions: MTCC 98, 24 h
Clostridium tetani = assay: Antibacterial activity against Clostridium tetani MTCC 449 after 24 hr by broth microdilution method; conditions: MTCC 449, 24 h
Vibrio cholerae = assay: Antibacterial activity against Vibrio cholerae MTCC 3906 after 24 hr by broth microdilution method; conditions: MTCC 3906, 24 h
Bacillus subtilis = assay: Antibacterial activity against Bacillus subtilis MTCC 441 after 24 hr by broth microdilution method; conditions: MTCC 441, 24 h
Streptococcus pneumoniae = assay: Antibacterial activity against Streptococcus pneumoniae MTCC 1936 after 24 hr by broth microdilution method; conditions: MTCC 1936, 24 h
Escherichia coli = assay: Antibacterial activity against Escherichia coli MTCC 443 after 24 hr by broth microdilution method; conditions: MTCC 443, 24 h

| Compound | MIC (Aspergillus fumigatus; MTCC 3008, 48 h) [µg/mL] | MIC (Candida albicans; MTCC 227, 48 h) [µg/mL] | MIC (Salmonella typhi) [µg/mL] | MIC (Clostridium tetani) [µg/mL] | MIC (Vibrio cholerae) [µg/mL] | MIC (Bacillus subtilis) [µg/mL] | MIC (Streptococcus pneumoniae) [µg/mL] | MIC (Escherichia coli) [µg/mL] | MIC (Aspergillus fumigatus) [µg/mL] | MIC (Candida albicans) [µg/mL] |
| --- | --- | --- | --- | --- | --- | --- | --- | --- | --- | --- |
| Cc1ccc(Sc2nc(N)c(C#N)c(-c3cc4ccccc4nc3Sc3ccccc3)c2C#N)cc1 | 250 (≈ 498 µM) | 1000 (≈ 1990 µM) | 125 (≈ 249 µM) | 250 (≈ 498 µM) | 250 (≈ 498 µM) | 200 (≈ 399 µM) | 250 (≈ 498 µM) | 100 (≈ 199 µM) |  |  |
| N#Cc1c(N)nc(Sc2ccc(Cl)cc2)c(C#N)c1-c1cc2ccccc2nc1Sc1ccccc1 | 1000 (≈ 1920 µM) | 1000 (≈ 1920 µM) | 250 (≈ 479 µM) | 200 (≈ 383 µM) | 250 (≈ 479 µM) | 250 (≈ 479 µM) | 500 (≈ 958 µM) | 250 (≈ 479 µM) |  |  |
| COC1=CC(=O)C[C@@H](C)[C@]12Oc1c(Cl)c(OC)cc(OC)c1C2=O [GRISEOFULVIN] | 100 (≈ 283 µM) | 500 (≈ 1420 µM) |  |  |  |  |  |  |  |  |
| Cc1ccc2nc(Sc3ccccc3)c(-c3c(C#N)c(N)nc(Sc4ccccc4)c3C#N)cc2c1 | 250 (≈ 498 µM) | 1000 (≈ 1990 µM) | 200 (≈ 399 µM) | 250 (≈ 498 µM) | 250 (≈ 498 µM) | 250 (≈ 498 µM) | 250 (≈ 498 µM) | 200 (≈ 399 µM) |  |  |
| Cc1ccc(Sc2nc3ccc(C)cc3cc2C=O)cc1 | 250 (≈ 852 µM) | 500 (≈ 1700 µM) | 200 (≈ 682 µM) | 250 (≈ 852 µM) | 125 (≈ 426 µM) | 250 (≈ 852 µM) | 250 (≈ 852 µM) | 250 (≈ 852 µM) |  |  |
| Cc1ccc2nc(Sc3ccc(Cl)cc3)c(-c3c(C#N)c(N)nc(Sc4ccccc4)c3C#N)cc2c1 | > 1000 | 1000 (≈ 1870 µM) | 200 (≈ 373 µM) | 250 (≈ 466 µM) | 100 (≈ 187 µM) | 250 (≈ 466 µM) | 250 (≈ 466 µM) | 62.5 (≈ 117 µM) |  |  |
| Cc1ccc2nc(Sc3ccccc3)c(-c3c(C#N)c(N)nc(Sc4ccc(Cl)cc4)c3C#N)cc2c1 | 250 (≈ 466 µM) | > 1000 | 100 (≈ 187 µM) | 200 (≈ 373 µM) | 200 (≈ 373 µM) | 500 (≈ 933 µM) | 500 (≈ 933 µM) | 50 (≈ 93.3 µM) |  |  |
| N#Cc1c(N)nc(Sc2ccc(Cl)cc2)c(C#N)c1-c1cc2ccccc2nc1Sc1ccc(Cl)cc1 | 1000 (≈ 1800 µM) | 500 (≈ 898 µM) | 200 (≈ 359 µM) | 500 (≈ 898 µM) | 200 (≈ 359 µM) | 250 (≈ 449 µM) | 100 (≈ 180 µM) | 200 (≈ 359 µM) |  |  |
| Cc1ccc(Sc2nc3ccc(C)cc3cc2-c2c(C#N)c(N)nc(Sc3ccccc3)c2C#N)cc1 | 500 (≈ 970 µM) | > 1000 | 200 (≈ 388 µM) | 500 (≈ 970 µM) | 250 (≈ 485 µM) | 250 (≈ 485 µM) | 250 (≈ 485 µM) | 100 (≈ 194 µM) |  |  |
| Cc1ccc2nc(Sc3ccc(Cl)cc3)c(C=O)cc2c1 | 1000 (≈ 3190 µM) | 200 (≈ 637 µM) | 125 (≈ 398 µM) | 500 (≈ 1590 µM) | 100 (≈ 319 µM) | 500 (≈ 1590 µM) | 500 (≈ 1590 µM) | 100 (≈ 319 µM) |  |  |
| NYSTATIN |  |  |  |  |  |  |  |  | 100 | 100 |
| Cc1ccc2nc(Sc3ccccc3)c(C=O)cc2c1 | > 1000 | > 1000 | 200 (≈ 716 µM) | 250 (≈ 895 µM) | 250 (≈ 895 µM) | 500 (≈ 1790 µM) | 500 (≈ 1790 µM) | 200 (≈ 716 µM) |  |  |
| Cc1ccc(Sc2nc3ccccc3cc2-c2c(C#N)c(N)nc(Sc3ccccc3)c2C#N)cc1 | > 1000 | 500 (≈ 997 µM) | 125 (≈ 249 µM) | 200 (≈ 399 µM) | 200 (≈ 399 µM) | 250 (≈ 498 µM) | 250 (≈ 498 µM) | 200 (≈ 399 µM) |  |  |
| Cc1ccc(Sc2nc3ccc(C)cc3cc2-c2c(C#N)c(N)nc(Sc3ccc(C)cc3)c2C#N)cc1 | 1000 (≈ 1890 µM) | 250 (≈ 472 µM) | 125 (≈ 236 µM) | 250 (≈ 472 µM) | 250 (≈ 472 µM) | 100 (≈ 189 µM) | 200 (≈ 378 µM) | 200 (≈ 378 µM) |  |  |
| Cc1ccc(Sc2nc(N)c(C#N)c(-c3cc4ccccc4nc3Sc3ccc(Cl)cc3)c2C#N)cc1 | > 1000 | 250 (≈ 466 µM) | 100 (≈ 187 µM) | 250 (≈ 466 µM) | 200 (≈ 373 µM) | 100 (≈ 187 µM) | 200 (≈ 373 µM) | 62.5 (≈ 117 µM) |  |  |
| Cc1ccc(Sc2nc3ccccc3cc2C=O)cc1 | 200 (≈ 716 µM) | 1000 (≈ 3580 µM) | 250 (≈ 895 µM) | 250 (≈ 895 µM) | 250 (≈ 895 µM) | 250 (≈ 895 µM) | 250 (≈ 895 µM) | 200 (≈ 716 µM) |  |  |
| Cc1ccc(Sc2nc(N)c(C#N)c(-c3cc4cc(C)ccc4nc3Sc3ccccc3)c2C#N)cc1 | 500 (≈ 970 µM) | 1000 (≈ 1940 µM) | 100 (≈ 194 µM) | 200 (≈ 388 µM) | 500 (≈ 970 µM) | 500 (≈ 970 µM) | 250 (≈ 485 µM) | 250 (≈ 485 µM) |  |  |
| N#Cc1c(N)nc(Sc2ccccc2)c(C#N)c1-c1cc2ccccc2nc1Sc1ccccc1 | 500 (≈ 1030 µM) | 250 (≈ 513 µM) | 200 (≈ 410 µM) | 500 (≈ 1030 µM) | 200 (≈ 410 µM) | 500 (≈ 1030 µM) | 500 (≈ 1030 µM) | 250 (≈ 513 µM) |  |  |
| Cc1ccc(Sc2nc(N)c(C#N)c(-c3cc4cc(C)ccc4nc3Sc3ccc(Cl)cc3)c2C#N)cc1 | 250 (≈ 454 µM) | > 1000 | 200 (≈ 364 µM) | 250 (≈ 454 µM) | 250 (≈ 454 µM) | 100 (≈ 182 µM) | 100 (≈ 182 µM) | 200 (≈ 364 µM) |  |  |
| O=C(O)c1cn(C2CC2)c2cc(N3CCNCC3)c(F)cc2c1=O [CIPROFLOXACIN] |  |  | 25 (≈ 75.4 µM) |  | 25 (≈ 75.4 µM) |  | 50 (≈ 151 µM) | 25 (≈ 75.4 µM) |  |  |
| Cc1ccc(Sc2nc3ccccc3cc2-c2c(C#N)c(N)nc(Sc3ccc(Cl)cc3)c2C#N)cc1 | > 1000 | > 1000 | 200 (≈ 373 µM) | 100 (≈ 187 µM) | 200 (≈ 373 µM) | 200 (≈ 373 µM) | 250 (≈ 466 µM) | 200 (≈ 373 µM) |  |  |
| CCn1cc(C(=O)O)c(=O)c2cc(F)c(N3CCNCC3)cc21 [NORFLOXACIN] |  |  | 10 (≈ 31.3 µM) | 50 (≈ 157 µM) | 10 (≈ 31.3 µM) | 100 (≈ 313 µM) | 10 (≈ 31.3 µM) | 10 (≈ 31.3 µM) |  |  |
| Cc1ccc2nc(Sc3ccc(Cl)cc3)c(-c3c(C#N)c(N)nc(Sc4ccc(Cl)cc4)c3C#N)cc2c1 | 500 (≈ 876 µM) | 500 (≈ 876 µM) | 100 (≈ 175 µM) | 500 (≈ 876 µM) | 200 (≈ 351 µM) | 500 (≈ 876 µM) | 500 (≈ 876 µM) | 50 (≈ 87.6 µM) |  |  |
| O=Cc1cc2ccccc2nc1Sc1ccc(Cl)cc1 | > 1000 | 1000 (≈ 3340 µM) | 250 (≈ 834 µM) | 200 (≈ 667 µM) | 200 (≈ 667 µM) | 250 (≈ 834 µM) | 100 (≈ 334 µM) | 250 (≈ 834 µM) |  |  |
| N#Cc1c(N)nc(Sc2ccccc2)c(C#N)c1-c1cc2ccccc2nc1Sc1ccc(Cl)cc1 | 1000 (≈ 1920 µM) | 200 (≈ 383 µM) | 200 (≈ 383 µM) | 200 (≈ 383 µM) | 100 (≈ 192 µM) | 100 (≈ 192 µM) | 200 (≈ 383 µM) | 100 (≈ 192 µM) |  |  |
| O=Cc1cc2ccccc2nc1Sc1ccccc1 | 1000 (≈ 3770 µM) | 250 (≈ 942 µM) | 250 (≈ 942 µM) | 250 (≈ 942 µM) | 200 (≈ 754 µM) | 200 (≈ 754 µM) | 200 (≈ 754 µM) | 200 (≈ 754 µM) |  |  |
| Cc1ccc(Sc2nc3ccccc3cc2-c2c(C#N)c(N)nc(Sc3ccc(C)cc3)c2C#N)cc1 | 1000 (≈ 1940 µM) | 1000 (≈ 1940 µM) | 250 (≈ 485 µM) | 250 (≈ 485 µM) | 200 (≈ 388 µM) | 250 (≈ 485 µM) | 200 (≈ 388 µM) | 250 (≈ 485 µM) |  |  |
| Cc1ccc(Sc2nc3ccc(C)cc3cc2-c2c(C#N)c(N)nc(Sc3ccc(Cl)cc3)c2C#N)cc1 | > 1000 | 1000 (≈ 1820 µM) | 100 (≈ 182 µM) | 100 (≈ 182 µM) | 200 (≈ 364 µM) | 250 (≈ 454 µM) | 250 (≈ 454 µM) | 100 (≈ 182 µM) |  |  |
| CC1(C)S[C@@H]2[C@H](NC(=O)[C@H](N)c3ccccc3)C(=O)N2[C@H]1C(=O)O [AMPICILLIN] |  |  | 100 (≈ 286 µM) | 250 (≈ 715 µM) | 100 (≈ 286 µM) | 250 (≈ 715 µM) | 100 (≈ 286 µM) | 100 (≈ 286 µM) |  |  |
